Source: ChEMBL document CHEMBL2010748, “Structure-Activity Relationship Studies of HIV-1 Integrase Oligonucleotide Inhibitors” (ACS Med Chem Lett, 2011)

target: Human immunodeficiency virus type 1 integrase (Human immunodeficiency virus 1, UniProt Q7ZJM1); experiment: Inhibition of Human immunodeficiency virus 1 integrase 3'-processing activity expressed in Escherichia coli using 21-mer DNA and Mg2+ after 2 hrs by polyacrylamide gel electrophoresis
Sequence (Q7ZJM1 whole entry): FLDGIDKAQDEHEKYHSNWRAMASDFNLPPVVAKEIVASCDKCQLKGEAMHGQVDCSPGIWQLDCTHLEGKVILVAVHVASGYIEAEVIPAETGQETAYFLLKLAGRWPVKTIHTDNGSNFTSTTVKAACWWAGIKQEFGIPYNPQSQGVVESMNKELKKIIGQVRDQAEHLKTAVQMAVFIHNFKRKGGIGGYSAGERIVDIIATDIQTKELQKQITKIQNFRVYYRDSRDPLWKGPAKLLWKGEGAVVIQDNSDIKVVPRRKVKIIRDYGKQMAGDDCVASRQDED

Compound	IC50
Cc1cn([C@H]2C[C@H](OP(=O)(O)OC[C@H]3O[C@@H](n4cc(C)c(=O)[nH]c4=O)C[C@@H]3OP(=O)(O)OC[C@H]3O[C@@H](n4cc(C)c(=O)[nH]c4=O)C[C@@H]3OP(=O)(O)OC[C@H]3O[C@@H](n4cnc5c(=O)[nH]c(N)nc54)C[C@@H]3OP(=O)(O)OC[C@H]3O[C@@H](n4cc(C)c(=O)[nH]c4=O)C[C@@H]3OP(=O)(O)OC[C@H]3O[C@@H](n4cnc5c(=O)[nH]c(N)nc54)C[C@@H]3OP(=O)(O)OC[C@H]3O[C@@H](n4cc(C)c(=O)[nH]c4=O)C[C@@H]3OP(=O)(O)OCCCCCCNC(=S)Nc3ccc(-c4c5cc(Br)c(=O)c(Br)c-5oc5c(Br)c(O)c(Br)cc45)c(C(=O)O)c3)[C@@H](COP(=O)(O)O[C@H]3C[C@H](n4cc(C)c(=O)[nH]c4=O)O[C@@H]3COP(=O)(O)O[C@H]3C[C@H](n4cc(C)c(=O)[nH]c4=O)O[C@@H]3COP(=O)(O)O[C@H]3C[C@H](n4cnc5c(=O)[nH]c(N)nc54)O[C@@H]3COP(=O)(O)O[C@H]3C[C@H](n4cnc5c(=O)[nH]c(N)nc54)O[C@@H]3CO)O2)c(=O)[nH]c1=O	50 nM
Cc1cn([C@H]2C[C@H](OP(=O)(O)OC[C@H]3O[C@@H](n4cc(C)c(=O)[nH]c4=O)C[C@@H]3OP(=O)(O)OC[C@H]3O[C@@H](n4cc(C)c(=O)[nH]c4=O)C[C@@H]3OP(=O)(O)OC[C@H]3O[C@@H](n4cnc5c(=O)[nH]c(N)nc54)C[C@@H]3OP(=O)(O)OC[C@H]3O[C@@H](n4cc(C)c(=O)[nH]c4=O)C[C@@H]3OP(=O)(O)OC[C@H]3O[C@@H](n4cnc5c(=O)[nH]c(N)nc54)C[C@@H]3OP(=O)(O)OC[C@H]3O[C@@H](n4cc(C)c(=O)[nH]c4=O)C[C@@H]3O)[C@@H](COP(=O)(O)O[C@H]3C[C@H](n4cc(C)c(=O)[nH]c4=O)O[C@@H]3COP(=O)(O)O[C@H]3C[C@H](n4cc(C)c(=O)[nH]c4=O)O[C@@H]3COP(=O)(O)O[C@H]3C[C@H](n4cnc5c(=O)[nH]c(N)nc54)O[C@@H]3COP(=O)(O)O[C@H]3C[C@H](n4cnc5c(=O)[nH]c(N)nc54)O[C@@H]3COP(=O)(O)O[C@@H]3C[C@@H](CO)N(C(=O)CCCCCNC(=O)c4ccc(C(=O)O)c(-c5c6ccc(=O)cc-6oc6cc(O)ccc56)c4)C3)O2)c(=O)[nH]c1=O	320 nM
Cc1cn([C@H]2C[C@H](OP(=O)(O)OC[C@H]3O[C@@H](n4cc(C)c(=O)[nH]c4=O)C[C@@H]3OP(=O)(O)OC[C@H]3O[C@@H](n4cc(C)c(=O)[nH]c4=O)C[C@@H]3OP(=O)(O)OC[C@H]3O[C@@H](n4cnc5c(=O)[nH]c(N)nc54)C[C@@H]3OP(=O)(O)OC[C@H]3O[C@@H](n4cc(C)c(=O)[nH]c4=O)C[C@@H]3OP(=O)(O)OC[C@H]3O[C@@H](n4cnc5c(=O)[nH]c(N)nc54)C[C@@H]3OP(=O)(O)OC[C@H]3O[C@@H](n4cc(C)c(=O)[nH]c4=O)C[C@@H]3O)[C@@H](COP(=O)(O)O[C@H]3C[C@H](n4cc(C)c(=O)[nH]c4=O)O[C@@H]3COP(=O)(O)O[C@H]3C[C@H](n4cc(C)c(=O)[nH]c4=O)O[C@@H]3COP(=O)(O)O[C@H]3C[C@H](n4cnc5c(=O)[nH]c(N)nc54)O[C@@H]3COP(=O)(O)O[C@H]3C[C@H](n4cnc5c(=O)[nH]c(N)nc54)O[C@@H]3COP(=O)(O)OCCCCCCNC(=O)c3ccc(C(=O)O)c(-c4c5ccc(=O)cc-5oc5cc(O)ccc45)c3)O2)c(=O)[nH]c1=O	310 nM
